We go through one compound from patent US10875861B1, “Therapeutic compounds” (Rutgers, The State University of New Jersey, priority 2017, dated 2020).

The assay relates to glioblastoma cancer cell line. In words: MTT viability assay with glioblastoma cancer cell line (Test A). The class given is cell-based, human. The settings on record: Homo sapiens, 72 hours. An excerpt:
To generate primary patient-derived GBM models for testing small molecule inhibitors, fresh primary tissues were received from patients undergoing surgical resection of WHO grade IV gliomas at Robert Wood Johnson University Hospital (RWJUH) under an approved IRB protocol. De-identified primary human GBM samples were delivered to the laboratory. Cells were obtained through mechanical dissociation of the tumor tissue using a blade and plated in DMEM/F12 medium (Gibco) in the presence of B-27 Supplement (Gibco, #17504-044), 20 ng/ml of human recombinant EGF (Gibco, #PHG0311L) and human recombinant FGF (Peprotech, #AF-100-18B). The following day, the culture was collected, incubated with Accutase (Gibco, #A11105-01) at 37° C. and passed through a 26G×⅜ needle (BD Precision Glide, #305110) to obtain a single cell suspension and re-plated in the same supplemented medium. Cells were cultured at low (5-6) passages in serum-free sphere 3D culture with mitogens that preserve the clonogenic stemness phenotype. […] different primary GBM cells (GBM #46, GBM #50, and GBM #76) were tested for cell viability after treatment with the inhibitors. Cell viability was measured using MTT assay. Briefly, one thousand cells per well were seeded in 96-well plates and exposed to drug in a total of 200 uL media. After 72 hours, 50 uL of stock concentration of 2.5 mg/mL 3-(4,5-dimethylthiazol-2-yl)-2,5-diphenyltetrazolium bromide (MTT) (Sigma, #M2128) dissolved in PBS was added to wells and incubated at 37° C. for 4 hours; read in a […] plate reader at 570 nm and compared to DMSO and untreated cells. The IC50 (defined as the concentration at which 50% of the cells were viable) was determined from the curve.
Accordingly, compounds of the invention may be useful as therapeutic agents for the treatment of cancer.
To generate primary patient-derived GBM models for testing small molecule inhibitors, fresh primary tissues were received from patients undergoing surgical resection of WHO grade IV gliomas at Robert Wood Johnson University Hospital (RWJUH) under an approved RB protocol. De-identified primary human GBM samples were delivered to the laboratory. Cells were obtained through mechanical dissociation of the tumor tissue using a blade and plated in DMEM/F12 medium (Gibco) in the presence of B-27 Supplement (Gibco, #17504-044), 20 ng/ml of human recombinant EGF (Gibco, #PHG0311L) and human recombinant FGF (Peprotech, #AF-100-18B). […] Cell viability was measured using MTT assay. […] After 72 hours, 50 uL of stock concentration of 2.5 mg/mL 3-(4,5-dimethylthiazol-2-yl)-2,5-diphenyltetrazolium bromide (MTT) (Sigma, #M2128) dissolved in PBS was added to wells and incubated at 37° C. for 4 hours; read in a […] plate reader at 570 nm and compared to DMSO and untreated cells. […]

On to `COc1ccc(Nc2nc(-c3nc4ncccn4c3C)cs2)cc1` [Example B1, N-(4-methoxyphenyl)-4-(3-methylimidazo[1,2-a]pyrimidin-2-yl)thiazol-2-amine], for which the EC50 stood at 5 µM.

What is called EC50 is the concentration that produces a half-maximal response. A low value points to greater potency.
